From patent US20230002400A1, “AMORPHOUS FORM OF NITROGEN-CONTAINING TRICYCLIC COMPOUND AND USE THEREOF” (SUNSHINE LAKE PHARMA CO., LTD., priority 2019, published 2023)

Assays:
[1] = Pharmacokinetic test in Beagle dogs, oral capsules; type: in vivo; conditions: dog, plasma, male Beagle dogs, 5 mg/kg orally
Experimental: The amorphous form of compound having Formula (I) named 2-((5-cyclopropyl-3-(2,6-di chl orophenyl)i soxazol-4-yl)methoxy)-10H-spiro[b enzo[6,7]oxepino[3,2-b]pyridine-11,1′-cyclopropane]-7-carboxylic acid was filled into capsules, which was for oral administration.
8-12 kg Male Beagle dogs were given 5 mg/kg test sample orally, with 3 animals in each group. Blood was taken at time points of 0.25, 0.5, 1.0, 2.0, 4.0, 6.0, 8.0, 12 and 24 h. Standard curve was plotted based on concentrations of the samples in a suitable range, the concentration of the test sample in the plasma sample was measured and quantified by AB SCIEX API4000 LC-MS/MS at MRM mode. Pharmacokinetic parameters were calculated according to drug concentration -time curve using a noncompartmental model by WinNonLin 6.3 software.

[2] = Stability test: high temperature test (60° C.); type: physicochemical
Experimental: (1) High temperature test: A batch of the test sample was taken into a flat weighing bottle, divided into ≤5 mm thick thin layer. The sample was placed at 60° C. for 30 days. The sample was then taken on days 5, 10, and 30, and the change of the sample's color was observed. The purity of the sample was detected by HPLC, and the structure of the sample was analyzed by X-ray powder diffraction, the change of X-ray powder diffraction in high temperature test was substantially shown in FIG. 4.

[3] = Stability test: high humidity test (25° C., RH 90% ±5%); type: physicochemical; conditions: for Appearance / Purity (%): High humidity 25° C., RH 90% ±5%
Experimental: (2) High humidity test: A batch of the test sample was taken into the flat weighing bottle, divided into <5 mm thick thin layer. The sample was placed at 25° C. and RH for 90% ±5% for 30 days. The sample was then taken on days 5, 10, and 30, and the change of the sample's color was observed. The purity of the sample was detected by HPLC, and the structure of the sample was analyzed by X-ray powder diffraction, the change of X-ray powder diffraction in high humidity test was substantially shown in FIG. 5.

[4] = Stability test: light test (light box with UV); type: physicochemical; conditions: for Appearance / Purity (%): Light (with UV)
Experimental: (3) Light test: A batch of the test sample was taken into the flat weighing bottle, divided into ≤5 mm thick thin layer. The sample was placed in an opened light box (with UV) at the illuminance 4500±5001x, UV light ≥0.7w/m2 for 30 days. The sample was then taken on days 5, 13, and 30, and the change of the sample's color was observed. The purity of the sample was detected by HPLC, and the structure of the sample was analyzed by X-ray powder diffraction, the change of X-ray powder diffraction in light test was substantially shown in FIG. 6.

[5] = Hygroscopicity test by dynamic moisture adsorption device; type: physicochemical; conditions: relative humidity of 80%
Experimental: The description of the hygroscopic feature and the definition of the hygroscopic weight gain (Chinese Pharmacopoeia 2015 edition, Appendix 9103 Guidelines for Drug Hygroscopicity Tests, experimental conditions: 25° C. ±1° C., 80% ±2% relative humidity) are as described in the table below.
An appropriate amount of the test sample was taken and the hygroscopicity of the test sample was tested by dynamic moisture adsorption device. […] That is, the amorphous form of the invention is not easily deliquescent under the influence of high humidity.

O=C(O)c1ccc2c(c1)Oc1ccc(OCc3c(-c4c(Cl)cccc4Cl)noc3C3CC3)nc1C1(CC1)C2 [The amorphous form, 2-((5-cyclopropyl-3-(2,6-dichlorophenyl)isoxazol-4-yl)methoxy)-10H-spiro[benzo[6,7]oxepino[3,2-b]pyridine-11,1′-cyclopropane]-7-carboxylic acid]
AUC(0-t) [1]: 765 ng·h/mL
Cmax [1]: 268 ng/mL
Tmax [1]: 2 h
Appearance ([2]; 0 Day (start of stability test)): White
Purity (%) ([2]; 0 Day (start of stability test), HPLC): 99.66%
Appearance ([2]; High temperature 60° C., 5 Days): White
Purity (%) ([2]; High temperature 60° C., 5 Days, HPLC): 99.65%
Appearance ([2]; High temperature 60° C., 10 Days): White
Purity (%) ([2]; High temperature 60° C., 10 Days, HPLC): 99.48%
Appearance ([2]; High temperature 60° C., 30 Days): White
Purity (%) ([2]; High temperature 60° C., 30 Days, HPLC): 99.60%
changes of appearance, chemical purity and crystal form ([2]; high temperature, up to 30 days, HPLC, XRPD): no obvious changes
Appearance ([3]; 5 Days): White
Purity (%) ([3]; 5 Days, HPLC): 99.64%
Appearance ([3]; 10 Days): White
Purity (%) ([3]; 10 Days, HPLC): 99.61%
Appearance ([3]; 30 Days): White
Purity (%) ([3]; 30 Days, HPLC): 99.63%
changes of appearance, chemical purity and crystal form ([3]; high humidity, up to 30 days, HPLC, XRPD): no obvious changes
Appearance ([4]; 5 Days): White
Purity (%) ([4]; 5 Days, HPLC): 99.62%
Appearance ([4]; 13 days): White
Purity (%) ([4]; 13 days, HPLC): 99.63%
Appearance ([4]; 30 days): White
Purity (%) ([4]; 30 days, HPLC): 99.57%
changes of appearance, chemical purity and crystal form ([4]; light, up to 30 days, HPLC, XRPD): no obvious changes
hygroscopic weight gain ([5]; after equilibrium): less than 2%
hygroscopic feature ([5]; criterion for the hygroscopic weight gain): slightly hygroscopic
